Assays:
[1] = test system: PEO4 (BRCA2+) and PEO1 (BRCA2−/−) cells; experiment: Short-term cell viability assay in PEO1/4 model; format: cell-based, human
Description: FIGS. Z4A-Z4I. KL-50 (4a) activates DNA damage response pathways and cycle arrest in MGMT− cells, independent of MMR, and induces sensitivity in cells deficient in ICL or HR repair. (FIGS. Z4A, Z4B, and Z4C) Phospho-SER139-H2AX (γH2AX) (A), 53BP1 (FIG. Z4B), and phospo-SER33-RPA2 (pRPA) (FIG. Z4C) foci formation quantified by % cells with 10 foci in LN229 MGMT+/−, MMR+/− cells treated with 0.1% DMSO control, 20 μM KL-50 (4a), or 20 μM TMZ (1a) for 48 h. Columns, mean; error bars, SD; n≥5 technical replicates. Additional time course data is presented in FIG. ZS6B to D. (FIG. Z4D) Representative foci images of data in (FIG. Z4A) to (FIG. Z4C). (FIG. Z4E) Percentage of cells in G1, S, and G2 cell cycle phases after treatment as in (A) to (C), measured using integrated nuclear (Hoechst) staining intensity. Columns, mean; error bars, SD; n=3 independent analyses. (FIG. Z4F) Change in percent cells with 1 micronuclei from baseline (DMSO control) after treatment as in (FIG. Z4A) to (FIG. Z4C). Columns, mean; error bars, SD; […] technical replicates; **** p<0.0001; ns, not significant. Additional validation is presented in FIG. ZS9, A and B. (FIG. Z4G) Short-term viability assay curves for KL-50 (4a) in PD20 cells, deficient in FANCD2 (FANCD2−/−) or complemented with FANCD2 (+FANCD2). (FIG. Z4H) Short-term viability assay curves for KL-50 (4a) in PEO4 (BRCA2+) and PEO1 (BRCA2−/−) cells pre-treated with 0.01% DMSO control or 10 μM O^6BG (+O^6BG) for 1 h prior to KL-50 (4a) addition. (FIG. Z4I) Short-term viability assay curves for KL-50 (4a) in DLD1 BRCA2+/− and BRCA2−/− cells pre-treated with 0.01% DMSO control or 10 μM O^6BG (+O^6BG) for 1 h prior to KL-50 (4a) addition. For (FIG. Z4G), (FIG. Z4H), and (FIG. Z4I), points, mean; error bars, SD; n=3 technical replicates.
Short-term Cell Viability Assay. Cells were seeded in 96-well plates at 1000 or 2000 cells/well and allowed to adhere at 23° C. for 60 min and then incubated overnight at 37° C. Cells were treated with indicated concentrations of compounds in triplicate for 4-6 days prior to fixation with 3.7% paraformaldehyde and nuclear staining with 1 μg/mL Hoechst 33342 dye. Cells were imaged on a Cytation 3 imaging reader (BioTek) and quantified using CellProfiler software.

[2] = test system: LN229 MGMT− cells with shRNA targeting MSH6, MLH1, PMS2, or MSH3; experiment: Short-term cell viability assay in cells lacking other MMR proteins; format: cell-based, human
Description: FIGS. ZS3A-ZS3J. KL-50 (4a) is effective in TMZ (1a)-resistant cells lacking other MMR proteins. (FIG. ZS3A) Western blotting performed in LN229 MGMT+/− cells with stable expression of shRNA targeting MSH6, MLH1, PMS2, or MSH3 to confirm depletion of the shRNA targets. In shMSH6 cells, there is reduced expression of MSH2, and in shMLH1 cells, there is loss of PMS2, due to destabilization in the setting of loss of their heterodimeric partners. GAPDH serves as loading control. (FIG. ZS3B) (Table S1.) IC50 values derived from short-term viability assays in LN229 MGMT+/− cells lines, +/−shRNA, treated with TMZ (1a) or KL-50 (4a). aMGMT TI (therapeutic index)=IC50 (MGMT+/MMR+) divided by IC50 (MGMT−/MMR+). bMMR RI (resistance index)=IC50 (MGMT−/MMR−) divided by IC50 (MGMT−/MMR+). (FIG. ZS3C) Short-term viability assay curves for TMZ (1a) in LN229 MGMT+/−, MMR+/shMSH6 cells. (FIG. ZS3D) Short-term viability assay curves for KL-50 (4a) in LN229 MGMT+/−, MMR+/shMSH6 cells. (FIG. ZS3E) Short-term viability assay curves for TMZ (1a) in LN229 MGMT+/−, MMR+/shMLH1 cells. (FIG. ZS3F) Short-term viability assay curves for KL-50 (4a) in LN229 MGMT+/−, MMR+/shMLH1 cells. (FIG. ZS3G) Short-term viability assay curves for TMZ (1a) in LN229 MGMT+/−, MMR+/shPMS2 cells. […]
Short-term Cell Viability Assay. […] Cells were imaged on a Cytation 3 imaging reader (BioTek) and quantified using CellProfiler software.

[3] = test system: O^6-guanine adducts in cellular DNA; conditions: dose of 20 μM; cited from earlier work

Row | Compound | therapeutic index (TI) ([1]; PEO1/4 model, ratio of IC50 values) [fold] | sensitivity of BRCA2-deficient cells (in words) ([1]; PEO1 versus PEO4, ± 10 μM O^6BG) | activity in MGMT− cells lacking MSH6, MLH1, PMS2, or MSH3 (in words) [2] | O^6MeG (3) adducts per cell [3]
1 | NC(=O)c1ncn2c(=O)n(CCF)nnc12 [KL-50, 3-(2-fluoroethyl)-4-oxo-3H,4H-imidazo[4,3-d][1,2,3,5]tetrazine-8-carboxamide] | 62 | BRCA2 loss enhanced the toxicity | confirmed the activity | 
2 | Cn1nnc2c(C(N)=O)ncn2c1=O [TMZ, temozolomide, reference compound] |  |  |  | 20,600
